Experimental data from patent US9624229B2, “Pyrimidine-2-amine compounds and their use as inhibitors of JAK kinases” (Rigel Pharmaceuticals, Inc., priority 2008, dated 2017).
Where two headings read alike, the source gives them in different places.

Biological target: Ba/F3 V617F cells (Homo sapiens, UniProt O60674, V617F, cells depend on it)
Assay: Proliferation assay (Cell Titer-Glo, 72 h) utilizing Ba/F3 V617F cells
Type: cell-based, mouse
How it was run: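 Readout is CellTiter-Glo luminescence after 72 h at 37 °C, giving IC50. Cells: Ba/F3 V617F, 1×10^5 cells/mL in RPMI with 10% FBS, treated in duplicate with 3-fold dilution series made from 5 mM DMSO stock, 1:250 in 5% FBS medium, added at 2×.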

[1] = inhibition of JAK2 activity, proliferation of Ba/F3 V617F cells, read-out: IC50 (the source's name)
[2] = Ba/F3 V617F cells, proliferation, level of activity given as class symbol, read-out: IC50 (the source's name)
[3] = Ba/F3 V617F cells, proliferation, level of activity to inhibit JAK2, read-out: IC50 (the source's name)

Sequence of Ba/F3 V617F cells (O60674 whole entry V617F): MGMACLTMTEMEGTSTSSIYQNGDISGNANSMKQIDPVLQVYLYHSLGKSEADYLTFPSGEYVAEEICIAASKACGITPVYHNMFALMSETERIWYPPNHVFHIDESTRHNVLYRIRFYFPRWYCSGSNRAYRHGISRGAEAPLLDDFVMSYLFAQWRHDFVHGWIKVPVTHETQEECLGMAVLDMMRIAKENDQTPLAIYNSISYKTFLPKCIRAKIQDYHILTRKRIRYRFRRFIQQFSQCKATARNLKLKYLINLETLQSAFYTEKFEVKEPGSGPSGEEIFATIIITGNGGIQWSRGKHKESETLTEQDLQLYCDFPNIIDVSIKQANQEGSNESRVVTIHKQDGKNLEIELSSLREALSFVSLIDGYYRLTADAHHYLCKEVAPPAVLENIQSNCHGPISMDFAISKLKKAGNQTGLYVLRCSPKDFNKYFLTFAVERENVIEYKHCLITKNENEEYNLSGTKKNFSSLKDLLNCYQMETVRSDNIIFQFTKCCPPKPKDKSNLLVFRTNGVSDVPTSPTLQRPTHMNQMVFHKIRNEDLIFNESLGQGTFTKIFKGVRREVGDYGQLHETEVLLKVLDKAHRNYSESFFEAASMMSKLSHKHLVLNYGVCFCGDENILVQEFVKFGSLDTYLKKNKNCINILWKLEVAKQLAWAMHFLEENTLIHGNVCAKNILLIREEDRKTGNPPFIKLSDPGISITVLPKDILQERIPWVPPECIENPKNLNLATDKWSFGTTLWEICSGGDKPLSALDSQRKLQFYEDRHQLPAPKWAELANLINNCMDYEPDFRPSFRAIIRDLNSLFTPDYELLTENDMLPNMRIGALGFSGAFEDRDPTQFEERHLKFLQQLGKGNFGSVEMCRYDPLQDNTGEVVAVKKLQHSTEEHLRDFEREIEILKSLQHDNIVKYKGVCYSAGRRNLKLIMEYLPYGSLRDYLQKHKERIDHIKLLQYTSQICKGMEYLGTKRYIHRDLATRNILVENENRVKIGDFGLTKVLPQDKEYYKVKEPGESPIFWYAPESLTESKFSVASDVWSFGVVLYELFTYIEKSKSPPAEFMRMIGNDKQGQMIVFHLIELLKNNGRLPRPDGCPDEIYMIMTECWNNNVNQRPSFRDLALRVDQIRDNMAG

Row | Structure (SMILES) | GI50 [2] | GI50 [3] | other results
1 | Cc1cc(Nc2nccc(-c3ccc4c(ccn4-c4ccncc4)c3)n2)cnc1N1C[C@@H]2C[C@H]1CN2C [compound 236, 4-(1-(pyridin-4-yl)-1H-indol-5-yl)-N-(5-methyl-6-((1S,4S)-5-methyl-2,5-diazabicyclo[2.2.1]heptan-2-yl)pyridin-3-yl)pyrimidin-2-amine] |  |  | GI50 [1]: < 1000 nM
2 | Cc1cc(Nc2nccc(-c3ccc4c(c3)OC(C)(C)C(=O)N4)n2)ccc1N1C[C@@H]2C[C@H]1CN2S(C)(=O)=O [compound 241, 4-(2,2-dimethyl-3-oxo-3,4-dihydro-2H-benzo[b][1,4]oxazin-7-yl)-N-(3-methyl-4-((1S,4S)-5-methylsulfonyl-2,5-diazabicyclo[2.2.1]heptan-2-yl)phenyl)pyrimidin-2-amine] | < 1000 nM |  | 
3 | Cc1cc(Nc2nccc(-c3cnc4c(c3)CCC(=O)N4)n2)ccc1N1C[C@@H]2C[C@H]1CN2S(C)(=O)=O [compound 237, 4-(7-oxo-5,6,7,8-tetrahydro-1,8-naphthyridin-3-yl)-N-(3-methyl-4-((1S,4S)-5-methylsulfonyl-2,5-diazabicyclo[2.2.1]heptan-2-yl)phenyl)pyrimidin-2-amine] | < 1000 nM |  | 
4 | Cc1cc(Nc2nccc(-c3ccc(N(C)C)nc3)n2)cnc1N1C[C@@H]2C[C@H]1CN2C [compound 61, 4-(6-(dimethylamino)pyridin-3-yl)-N-(5-methyl-6-((1S,4S)-5-methyl-2,5-diazabicyclo[2.2.1]heptan-2-yl)pyridin-3-yl)pyrimidin-2-amine] |  |  | GI50 [1]: < 1000 nM
5 | Cc1cc(Nc2nccc(-c3ccc(C(=O)Nc4ccccn4)cc3)n2)ccc1N1CCN2CCC1CC2 [compound 161, 4-(4-((pyridin-2-yl)aminocarbonyl)phenyl)-N-(3-methyl-4-(1,4-diazabicyclo[3.2.2]nonan-4-yl)phenyl)pyrimidin-2-amine] |  | < 1000 nM | 
6 | CCN(CC)c1nc(-c2ccnc(Nc3ccc(N4C[C@@H]5C[C@H]4CN5C)c(F)c3)n2)cs1 [compound 164, 4-(2-(diethylamino)thiazol-4-yl)-N-(3-fluoro-4-((1S,4S)-5-methyl-2,5-diazabicyclo[2.2.1]heptan-2-yl)phenyl)pyrimidin-2-amine] |  | < 1000 nM | 
7 | CN1CC2(C)CN(c3ccc(Nc4nccc(-c5ccc(N(C)C)cc5)n4)cc3F)CC(C)(C1)C2 [compound 84, 4-(4-(dimethylamino)phenyl)-N-(3-fluoro-4-(1,5,7-trimethyl-3,7-diazabicyclo[3.3.1]nonan-3-yl)phenyl)pyrimidin-2-amine] |  | < 1000 nM | 
8 | CN1C[C@@H]2C[C@H]1CN2c1ccc(Nc2nccc(-c3ccc4c(c3)SCC(=O)N4)n2)cc1 [compound 239, 4-(3-oxo-3,4-dihydro-2H-benzo[b][1,4]thiazin-7-yl)-N-(4-((1S,4S)-5-methyl-2,5-diazabicyclo[2.2.1]heptan-2-yl)phenyl)pyrimidin-2-amine] | < 1000 nM |  | 
9 | CC1(C)Oc2cc(-c3ccnc(Nc4ccc(N5C[C@@H]6C[C@H]5CN6)c(C(F)(F)F)c4)n3)cnc2NC1=O [compound 172, 4-(2,2-dimethyl-3-oxo-3,4-dihydro-2H-pyrido[3,2-b][1,4]oxazin-7-yl)-N-(3-trifluoromethyl-4-((1S,4S)-2,5-diazabicyclo[2.2.1]heptan-2-yl)phenyl)pyrimidin-2-amine] |  | < 1000 nM | 
10 | CS(=O)(=O)N1C[C@@H]2C[C@H]1CN2c1ccc(Nc2nccc(-c3ccc(OC4CCOCC4)nc3)n2)cc1Cl [compound 258, 4-(6-(tetrahydropyran-4-yloxy)pyridin-3-yl)-N-(3-chloro-4-((1S,4S)-5-(methylsulfonyl)-2,5-diazabicyclo[2.2.1]heptan-2-yl)phenyl)pyrimidin-2-amine] | 1000 to 10000 nM |  | 

Continued, in another order:

Row | GI50 [2] | GI50 [3] | Structure (SMILES) | other results
11 |  | < 1000 nM | Cc1cc(Nc2nccc(-c3cnc(N4CCOCC4)nc3)n2)ccc1N1C[C@@H]2C[C@H]1CN2C [compound 41, 4-(2-(morpholin-4-yl)pyrimidin-5-yl)-N-(3-methyl-4-((1S,4S)-5-methyl-2,5-diazabicyclo[2.2.1]heptan-2-yl)phenyl)pyrimidin-2-amine] | 
12 |  | < 1000 nM | Cc1cc(Nc2nccc(-c3ccc(N4CCOCC4)nc3)n2)ccc1N1CCN2CCC1CC2 [compound 159, 4-(6-(morpholin-4-yl)pyridin-3-yl)-N-(3-methyl-4-(1,4-diazabicyclo[3.2.2]nonan-4-yl)phenyl)pyrimidin-2-amine] | 
13 |  | < 1000 nM | CN1CC2(C)CN(c3ccc(Nc4nccc(-c5ccc(N6CCOCC6)nc5)n4)cc3F)CC(C)(C1)C2 [compound 85, 4-(6-(morpholin-4-yl)pyridin-3-yl)-N-(3-fluoro-4-(1,5,7-trimethyl-3,7-diazabicyclo[3.3.1]nonan-3-yl)phenyl)pyrimidin-2-amine] | 
14 |  | < 1000 nM | CN1C[C@@H]2C[C@H]1CN2c1ccc(Nc2nccc(-c3ccc(N4CCOCC4)nc3)n2)cc1 [compound 184, 4-(6-(morpholin-4-yl)pyridin-3-yl)-N-(4-((1S,4S)-5-methyl-2,5-diazabicyclo[2.2.1]heptan-2-yl)phenyl)pyrimidin-2-amine] | 
15 | < 1000 nM |  | Cc1cc(Nc2nccc(-c3ccc(N4CCOCC4)nc3)n2)ccc1N1C[C@@H]2C[C@H]1CN2C [compound 231, 4-(6-(morpholin-4-yl)pyridin-3-yl)-N-(3-methyl-4-((1S,4S)-5-methyl-2,5-diazabicyclo[2.2.1]heptan-2-yl)phenyl)pyrimidin-2-amine] | 
16 | < 1000 nM |  | Cc1cc(Nc2nccc(-c3ccc(N4C[C@@H]5C[C@H]4CO5)nc3)n2)ccc1N1CCN2CCC1CC2 [compound 280, 4-(6-((1S,4S)-2-oxa-5-azabicyclo[2.2.1]heptan-5-yl)pyridin-3-yl)-N-(3-methyl-4-(1,4-diazabicyclo[3.2.2]nonan-4-yl)phenyl)pyrimidin-2-amine] | 
17 |  | < 1000 nM | CN1C[C@@H]2C[C@H]1CN2c1ccc(Nc2nccc(-c3ccc(N4CCOCC4)nc3)n2)cc1C#N [compound 118, 4-(6-(morpholin-4-yl)pyridin-3-yl)-N-(3-cyano-4-((1S,4S)-5-methyl-2,5-diazabicyclo[2.2.1]heptan-2-yl)phenyl)pyrimidin-2-amine] | 
18 | < 1000 nM |  | CN1C[C@@H]2C[C@H]1CN2c1ccc(Nc2nccc(-c3ccc(N4CCOCC4)nc3)n2)cc1Cl [compound 255, 4-(6-(morpholin-4-yl)pyridin-3-yl)-N-(3-chloro-4-((1S,4S)-5-methyl-2,5-diazabicyclo[2.2.1]heptan-2-yl)phenyl)pyrimidin-2-amine] | 
19 | 1000 to 10000 nM |  | Cc1cc(Nc2nccc(-c3ccc(N4CCOCC4)nc3)n2)ccc1N1C[C@@H]2C[C@H]1CN2C(=N)N [compound 199, 4-(6-(morpholin-4-yl)pyridin-3-yl)-N-(3-methyl-4-((1S,4S)-5-amidino-2,5-diazabicyclo[2.2.1]heptan-2-yl)phenyl)pyrimidin-2-amine] | 
20 |  | < 1000 nM | Cc1cc(Nc2nccc(-c3ccc4ncn(C)c4c3)n2)ccc1N1C[C@@H]2C[C@H]1CN2C [compound 107, 4-(1-methylbenzimidazol-6-yl)-N-(3-methyl-4-((1S,4S)-5-methyl-2,5-diazabicyclo[2.2.1]heptan-2-yl)phenyl)pyrimidin-2-amine] | 
21 | < 1000 nM |  | Cc1cc(Nc2nccc(-c3ccc(N4CCOCC4)nc3)n2)ccc1N1CCN2CC[C@H]1C2 [compound 277, 4-(6-(morpholin-4-yl)pyridin-3-yl)-N-(3-methyl-4-((S)-1,4-diazabicyclo[3.2.1]octan-4-yl)phenyl)pyrimidin-2-amine] | 
